In ChEMBL document CHEMBL4368890, “Progress toward allosteric ligands of metabotropic glutamate 7 (mGlu7) receptor: 2008-present” (Medchemcomm, 2019):

Assays:
[1] = Lipophilicity, logP of the compound; type: physicochemical; conditions: octanol/water
[2] = biological target: T1, Metabotropic glutamate receptor 7 (Homo sapiens, UniProt Q14831); assay: Negative allosteric modulator activity at human mGlu7 assessed as reduction in Ca2+ mobilization by HTS assay; type: functional
[3] = biological target: T1, Metabotropic glutamate receptor 7; assay: Agonist activity at human mGlu7
[4] = biological target: Metabotropic glutamate receptor 7 (Mus musculus, UniProt Q68ED2); assay: Agonist activity at mouse mGlu7
Chain of Metabotropic glutamate receptor 7 (Mus musculus, UniProt Q68ED2) (Q68ED2 whole entry): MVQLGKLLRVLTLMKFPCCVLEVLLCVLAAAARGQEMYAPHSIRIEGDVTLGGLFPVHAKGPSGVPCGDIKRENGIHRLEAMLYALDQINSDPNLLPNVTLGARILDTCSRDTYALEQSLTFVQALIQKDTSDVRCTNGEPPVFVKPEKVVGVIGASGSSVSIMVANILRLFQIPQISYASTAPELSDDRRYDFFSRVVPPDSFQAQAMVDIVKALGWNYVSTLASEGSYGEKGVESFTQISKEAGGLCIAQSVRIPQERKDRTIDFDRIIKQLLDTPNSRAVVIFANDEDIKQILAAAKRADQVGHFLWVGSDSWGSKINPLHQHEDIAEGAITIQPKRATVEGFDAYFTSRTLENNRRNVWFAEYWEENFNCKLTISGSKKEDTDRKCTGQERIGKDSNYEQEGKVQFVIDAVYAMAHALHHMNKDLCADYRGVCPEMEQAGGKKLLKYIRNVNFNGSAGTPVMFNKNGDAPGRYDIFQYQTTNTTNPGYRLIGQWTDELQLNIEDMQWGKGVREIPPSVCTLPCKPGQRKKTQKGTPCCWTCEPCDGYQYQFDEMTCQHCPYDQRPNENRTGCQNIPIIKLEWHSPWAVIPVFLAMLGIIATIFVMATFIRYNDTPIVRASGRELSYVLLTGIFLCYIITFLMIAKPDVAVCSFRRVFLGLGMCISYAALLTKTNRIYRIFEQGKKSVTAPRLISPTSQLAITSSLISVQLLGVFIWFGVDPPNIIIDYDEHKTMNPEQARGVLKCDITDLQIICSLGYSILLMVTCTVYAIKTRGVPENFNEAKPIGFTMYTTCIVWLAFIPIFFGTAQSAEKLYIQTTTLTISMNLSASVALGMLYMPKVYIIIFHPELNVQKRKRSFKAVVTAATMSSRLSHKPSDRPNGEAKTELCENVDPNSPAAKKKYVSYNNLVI

[5] = biological target: T2, Metabotropic glutamate receptor 5 (Homo sapiens, UniProt P41594); assay: Allosteric agonist activity at human mGlu5 expressed in CHO cells assessed as reduction in forskolin-induced cAMP production after 30 mins by cAMP reagent-based assay; type: functional, cell-based
T2 sequence (P41594 whole entry): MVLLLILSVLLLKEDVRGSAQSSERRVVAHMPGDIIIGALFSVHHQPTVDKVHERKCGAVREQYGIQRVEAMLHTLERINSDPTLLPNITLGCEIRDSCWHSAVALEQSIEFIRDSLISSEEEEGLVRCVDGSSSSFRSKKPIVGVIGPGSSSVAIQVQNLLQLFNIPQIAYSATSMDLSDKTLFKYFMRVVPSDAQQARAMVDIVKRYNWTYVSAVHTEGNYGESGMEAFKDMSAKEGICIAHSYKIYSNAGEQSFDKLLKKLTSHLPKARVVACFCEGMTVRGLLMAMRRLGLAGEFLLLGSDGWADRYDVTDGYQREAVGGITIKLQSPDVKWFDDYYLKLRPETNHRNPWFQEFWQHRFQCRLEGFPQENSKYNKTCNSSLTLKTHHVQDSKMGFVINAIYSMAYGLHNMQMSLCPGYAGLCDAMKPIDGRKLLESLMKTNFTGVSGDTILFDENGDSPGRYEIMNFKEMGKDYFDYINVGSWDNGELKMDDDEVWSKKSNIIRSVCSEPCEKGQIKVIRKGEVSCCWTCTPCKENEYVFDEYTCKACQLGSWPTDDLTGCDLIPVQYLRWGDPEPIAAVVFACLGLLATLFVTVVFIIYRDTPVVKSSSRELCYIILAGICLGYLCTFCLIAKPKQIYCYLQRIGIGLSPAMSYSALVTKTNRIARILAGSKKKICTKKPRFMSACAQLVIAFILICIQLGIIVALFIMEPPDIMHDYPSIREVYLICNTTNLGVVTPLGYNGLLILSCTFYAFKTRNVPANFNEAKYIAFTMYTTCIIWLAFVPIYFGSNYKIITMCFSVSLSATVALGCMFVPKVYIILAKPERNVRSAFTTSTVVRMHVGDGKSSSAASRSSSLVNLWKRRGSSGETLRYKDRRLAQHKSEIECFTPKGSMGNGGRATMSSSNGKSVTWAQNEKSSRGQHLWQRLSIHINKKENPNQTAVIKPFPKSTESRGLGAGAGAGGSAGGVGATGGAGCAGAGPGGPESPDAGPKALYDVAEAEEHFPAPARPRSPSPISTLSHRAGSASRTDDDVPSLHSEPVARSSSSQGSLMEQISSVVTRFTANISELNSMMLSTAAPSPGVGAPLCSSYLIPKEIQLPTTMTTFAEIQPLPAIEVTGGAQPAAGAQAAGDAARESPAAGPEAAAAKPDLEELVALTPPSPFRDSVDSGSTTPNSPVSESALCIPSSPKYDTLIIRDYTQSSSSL

[6] = biological target: T3, Metabotropic glutamate receptor 3 (Homo sapiens, UniProt Q14832); assay: Allosteric agonist activity at human mGlu3 expressed in CHO cells assessed as reduction in forskolin-induced cAMP production after 30 mins by cAMP reagent-based assay; type: functional, cell-based
T3 sequence (Q14832 whole entry): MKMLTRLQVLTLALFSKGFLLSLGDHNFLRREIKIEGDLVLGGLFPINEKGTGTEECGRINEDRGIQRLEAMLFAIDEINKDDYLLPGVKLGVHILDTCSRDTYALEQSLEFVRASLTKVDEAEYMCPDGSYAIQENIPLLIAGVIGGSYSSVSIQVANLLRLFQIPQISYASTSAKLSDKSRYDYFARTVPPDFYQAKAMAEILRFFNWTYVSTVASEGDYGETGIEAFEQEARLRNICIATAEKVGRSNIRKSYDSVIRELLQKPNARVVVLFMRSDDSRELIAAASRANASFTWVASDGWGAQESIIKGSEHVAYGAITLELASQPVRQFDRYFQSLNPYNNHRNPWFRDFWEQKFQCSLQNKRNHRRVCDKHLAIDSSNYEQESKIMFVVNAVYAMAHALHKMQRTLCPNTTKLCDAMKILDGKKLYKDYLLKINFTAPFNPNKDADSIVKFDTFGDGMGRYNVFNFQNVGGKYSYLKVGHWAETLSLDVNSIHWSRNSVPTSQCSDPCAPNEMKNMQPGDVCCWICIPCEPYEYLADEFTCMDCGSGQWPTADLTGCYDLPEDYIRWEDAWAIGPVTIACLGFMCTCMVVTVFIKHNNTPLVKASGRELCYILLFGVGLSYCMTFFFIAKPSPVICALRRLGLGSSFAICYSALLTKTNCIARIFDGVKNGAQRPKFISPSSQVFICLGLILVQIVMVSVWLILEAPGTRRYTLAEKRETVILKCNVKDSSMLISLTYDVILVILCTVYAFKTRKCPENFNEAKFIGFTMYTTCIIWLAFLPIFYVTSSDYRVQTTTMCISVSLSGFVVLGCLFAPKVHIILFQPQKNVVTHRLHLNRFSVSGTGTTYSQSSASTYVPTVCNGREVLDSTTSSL

[7] = biological target: Metabotropic glutamate receptor 4 (Homo sapiens, UniProt Q14833); assay: Agonist activity at mGlu4 (unknown origin)
[8] = biological target: T1, Metabotropic glutamate receptor 7; assay: Agonist activity at mGlu7 (unknown origin)
[9] = biological target: Metabotropic glutamate receptor 1 (Homo sapiens, UniProt Q13255); assay: Allosteric activity at mGlu1 (unknown origin)
Chain of Metabotropic glutamate receptor 1 (Q13255 whole entry): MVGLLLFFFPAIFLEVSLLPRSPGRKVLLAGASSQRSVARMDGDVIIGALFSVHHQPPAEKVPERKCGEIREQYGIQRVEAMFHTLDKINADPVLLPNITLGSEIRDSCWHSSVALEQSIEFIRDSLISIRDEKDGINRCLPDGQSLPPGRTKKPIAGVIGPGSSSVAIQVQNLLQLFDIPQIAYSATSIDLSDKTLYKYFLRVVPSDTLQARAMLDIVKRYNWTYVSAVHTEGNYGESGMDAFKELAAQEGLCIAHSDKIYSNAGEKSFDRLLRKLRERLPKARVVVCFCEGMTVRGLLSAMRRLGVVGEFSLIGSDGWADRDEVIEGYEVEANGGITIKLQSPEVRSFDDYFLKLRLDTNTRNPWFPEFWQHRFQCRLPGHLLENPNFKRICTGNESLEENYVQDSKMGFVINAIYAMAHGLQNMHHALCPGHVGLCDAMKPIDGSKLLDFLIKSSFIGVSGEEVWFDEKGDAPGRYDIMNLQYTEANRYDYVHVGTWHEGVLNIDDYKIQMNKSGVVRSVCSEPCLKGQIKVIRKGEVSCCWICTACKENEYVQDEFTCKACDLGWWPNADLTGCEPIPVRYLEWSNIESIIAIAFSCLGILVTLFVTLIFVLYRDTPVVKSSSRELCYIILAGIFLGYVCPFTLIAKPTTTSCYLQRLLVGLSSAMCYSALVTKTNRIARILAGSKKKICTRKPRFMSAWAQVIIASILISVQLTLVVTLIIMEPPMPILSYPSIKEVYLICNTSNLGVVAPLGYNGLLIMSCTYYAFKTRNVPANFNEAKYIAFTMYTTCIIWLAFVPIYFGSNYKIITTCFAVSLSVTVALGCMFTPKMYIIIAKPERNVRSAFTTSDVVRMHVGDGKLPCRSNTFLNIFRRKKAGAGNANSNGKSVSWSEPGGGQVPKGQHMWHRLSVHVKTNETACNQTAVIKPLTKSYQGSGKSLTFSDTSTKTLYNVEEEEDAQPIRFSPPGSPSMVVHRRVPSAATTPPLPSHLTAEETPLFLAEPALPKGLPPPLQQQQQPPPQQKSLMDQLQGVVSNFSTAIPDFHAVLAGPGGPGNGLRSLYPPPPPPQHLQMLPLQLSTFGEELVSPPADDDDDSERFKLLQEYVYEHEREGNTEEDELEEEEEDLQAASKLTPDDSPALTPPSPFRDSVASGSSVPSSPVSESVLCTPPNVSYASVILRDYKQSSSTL

[10] = biological target: T3, Metabotropic glutamate receptor 3; assay: Allosteric activity at mGlu3 (unknown origin)
[11] = […], Kp in mouse at 10 mg/kg, ip after 1 hr; type: ADME, organism-based; conditions: in vivo
[12] = biological target: T2, Metabotropic glutamate receptor 5; assay: Allosteric activity at mGlu5 (unknown origin)
[13] = biological target: Metabotropic glutamate receptor 6 (Homo sapiens, UniProt O15303); assay: Allosteric activity at mGlu6 (unknown origin)
[14] = biological target: Metabotropic glutamate receptor 2 (Homo sapiens, UniProt Q14416); assay: Allosteric activity at mGlu2 (unknown origin)
Chain of Metabotropic glutamate receptor 2 (Q14416 whole entry): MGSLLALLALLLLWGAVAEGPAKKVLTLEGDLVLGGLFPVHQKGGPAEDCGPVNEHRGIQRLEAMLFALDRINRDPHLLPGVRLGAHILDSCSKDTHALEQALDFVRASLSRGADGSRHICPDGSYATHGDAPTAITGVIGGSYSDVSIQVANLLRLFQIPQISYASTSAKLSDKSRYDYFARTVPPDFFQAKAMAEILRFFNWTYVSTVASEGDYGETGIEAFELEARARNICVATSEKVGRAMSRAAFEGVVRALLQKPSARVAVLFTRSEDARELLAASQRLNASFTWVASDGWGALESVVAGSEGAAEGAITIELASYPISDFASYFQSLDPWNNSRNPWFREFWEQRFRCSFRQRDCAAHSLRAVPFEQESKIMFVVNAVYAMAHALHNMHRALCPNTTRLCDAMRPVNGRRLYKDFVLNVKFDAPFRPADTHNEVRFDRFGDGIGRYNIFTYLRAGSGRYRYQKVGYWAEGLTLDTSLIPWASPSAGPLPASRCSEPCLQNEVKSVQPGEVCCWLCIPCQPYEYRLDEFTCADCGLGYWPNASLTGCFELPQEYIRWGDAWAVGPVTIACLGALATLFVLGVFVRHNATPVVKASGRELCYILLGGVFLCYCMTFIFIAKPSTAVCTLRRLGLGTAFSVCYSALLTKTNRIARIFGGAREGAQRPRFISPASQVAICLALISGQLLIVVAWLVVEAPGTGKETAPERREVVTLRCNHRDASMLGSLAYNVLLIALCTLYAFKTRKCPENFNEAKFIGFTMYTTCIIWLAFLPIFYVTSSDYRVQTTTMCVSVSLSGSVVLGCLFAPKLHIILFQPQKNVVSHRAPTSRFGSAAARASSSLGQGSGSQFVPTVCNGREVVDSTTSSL

[15] = biological target: T1, Metabotropic glutamate receptor 7; assay: Agonist activity at human mGlu7 expressed in CHO cells assessed as reduction in forskolin-induced cAMP production; type: functional, cell-based
[16] = biological target: Metabotropic glutamate receptor 8 (Rattus norvegicus, UniProt P70579); assay: Agonist activity at rat mGlu8 receptor expressed in HEK cell co-expressing Galpha15 (unknown origin) assessed as […] intracellular Ca2+ mobilization by Fluo-4-AM dye based fluorescence assay; type: functional
[17] = biological target: T1, Metabotropic glutamate receptor 7; assay: Allosteric agonist activity at human mGlu7 expressed in CHO cells assessed as reduction in forskolin-induced cAMP production after 30 mins by cAMP reagent-based assay relative to control; type: functional, cell-based
[18] = biological target: T1, Metabotropic glutamate receptor 7; assay: Allosteric agonist activity at human mGlu7 expressed in CHO cells assessed as reduction in forskolin-induced cAMP production after 30 mins by cAMP reagent-based assay; type: functional, cell-based

T1 sequence (Q14831 whole entry): as the sequence (Q68ED2 whole entry) above, with G5R, V27A, T488S, P520A, N578D counted along it

## CNCC[C@H](NCC(=O)N1CCCc2ccccc21)c1ccccc1
[1]
  logP: 3

## CCc1nc2c(o1)CC(c1ccc(C)cc1C)CC2=O (stereo not given)
[2]
  IC50: 63 nM

## C[C@H](C(=O)NC1COc2ccccc2C1S(C)(=O)=O)c1ccc(F)cc1 (stereo not given in full)
[3]
  EC50: 6.9 nM
[4]
  EC50: 1.8 nM

## CNC(=O)N1CCCC(CN2CCC(OC(c3ccccc3)c3ccccc3)CC2)C1 (stereo not given)
[5]
  EC50: 631 nM
[6]
  pEC50: 6.2

## CCc1nn2c(C(F)(F)F)cc(C)nc2c1-c1cc(F)c(OC)cc1F
[7]
  EC50: 2100 nM

## C[C@H](C(=O)NC1COc2ccc(F)cc2C1O)c1ccccc1 (stereo not given in full)
[8]
  EC50: 1.21 nM

## COc1ccc(-c2c(C)nn3c(C(F)(F)F)cc(C)nc23)c(F)c1F
[9]
  EC50: > 10000 nM
  IC50: > 10000 nM
[10]
  EC50: > 10000 nM
  IC50: > 10000 nM
[11]
  Kp at 1 h: 2.1
[12]
  EC50: > 10000 nM
  IC50: > 10000 nM
[13]
  EC50: > 10000 nM
  IC50: > 10000 nM
[14]
  EC50: > 10000 nM
  IC50: > 10000 nM

## O=C(C[C@H](NCC1CC1)c1ccccc1)N1CCCOc2ccccc21
[15]
  EC50: 1 nM

## COC(=O)c1ccc(-n2c(C)cc(C(=O)CSc3ccc(NC(C)=O)cc3)c2C)cc1
[16]
  EC50: 930 nM

## c1ccc(C(NCCNC(c2ccccc2)c2ccccc2)c2ccccc2)cc1
[17]
  Emax: 62%
[1]
  logP: 5.9
[18]
  EC50: 158 nM

## O=C(NCc1ccccc1F)C1c2ccccc2CC(=O)N1CC1CC1 (stereo not given)
[8]
  EC50: 29.2 nM
